Experimental data as given in US7071293B1, “Alpha helical peptides with broad spectrum antimicrobial activity that are insensitive to salt” (priority 1999, dated 2006).
Where two headings read alike, the source gives them in different places. Ends that are not written are not given here.

Columns and labels:
[1] = tested on: P. aeruginosa PAO1; conditions: for EC50 P. aeruginosa PAO1 μg/ml ± sem: average ± sem
[2] = tested on: E. coli ML-35p; conditions: for E. coli ML-35p MIC, 0 mM NaCl: underlay 0 mM NaCl; for E. coli ML-35p MIC, 0 mM NaCl / E. coli ML-35p MIC, 175 mM NaCl: Table 15; for E. coli ML-35p MIC, 175 mM NaCl: underlay 175 mM NaCl
[3] = tested on: P. aeruginosa MR 3007
[4] = tested on: S. aureus 930918-3
[5] = tested on: MRSA ATCC 33591
[6] = tested on: E. coli DH-5α; conditions: DH-5α
[7] = tested on: P. aeruginosa PA-01
[8] = tested on: E. coli DH5α
[9] = ionic strength 25 mM, avg ± sem
[10] = ionic strength 175 mM, avg ± sem

In the case of LRRIIRKIIHIIK-NH2 [SMAP29X-13A], the “EC50 P. aeruginosa PAO1 μg/ml ± sem” value ([1]; ionic strength 25 mM) is reported as 0.27 ± 0.03 µg/mL and the “EC50 P. aeruginosa PAO1 μg/ml ± sem” value ([1]; ionic strength 175 mM) is reported as 2.23 ± 0.41 µg/mL.
With LRRIIRKIIHIIKK [Peptide 12] the “E. coli ML-35p MIC, 0 mM NaCl” value [2] was 0.68 ± 0.07 µg/mL, the “E. coli ML-35p MIC, 175 mM NaCl” value [2] was over 79.1 µg/mL and the “P. aeruginosa MR-3007 MIC, 0 mM NaCl” value [3] was 0.98 ± 0.08 µg/mL. For the same substance, the “P. aeruginosa MR-3007 MIC, 175 mM NaCl” value [3] was 46.3 ± 9.1 µg/mL, the “S. aureus 930918-3 MIC, 0 mM NaCl” value [4] was 2.40 ± 0.17 µg/mL and the “S. aureus 930918-3 MIC, 175 mM NaCl” value [4] was 79.1 ± 0 µg/mL. For the same substance, the “MRSA ATCC 33591 MIC, 0 mM NaCl” value [5] was 11.0 ± 3.96 µg/mL, the “MRSA ATCC 33591 MIC, 175 mM NaCl” value [5] was over 79.1 µg/mL and the “E. coli DH-5α MIC, 0 mM NaCl” value [6] was 1.36 ± 0.19 µg/mL. For the same substance, the “E. coli DH-5α MIC, 175 mM NaCl” value [6] was 19.1 ± 5.0 µg/mL, the “P. aeruginosa PA-01 MIC, 0 mM NaCl” value [7] was 0.98 ± 0.05 µg/mL and the “P. aeruginosa PA-01 MIC, 175 mM NaCl” value [7] was 11.9 ± 4.7 µg/mL.
LRRIIRKIIHIIKK [SMAP29X-14B] was tested, and the “EC50 P. aeruginosa PAO1” value [1, 9] was 0.55 ± 0.03 µg/mL and the “EC50 P. aeruginosa PAO1” value [1, 10] was 5.55 ± 0.42 µg/mL.
NIRRIIRKIIHIIKKY [SMAP29X-16D] was tested, and the “EC50 P. aeruginosa PAO1” value [1, 9] was 0.70 ± 0.36 µg/mL and the “EC50 P. aeruginosa PAO1” value [1, 10] was 3.64 ± 1.75 µg/mL.
In the case of NLRRIIRKIIHIIKKY [SMAP29X-16A], the “EC50 P. aeruginosa PAO1” value [1, 9] is reported as 0.90 ± 0.54 µg/mL and the “EC50 P. aeruginosa PAO1” value [1, 10] is reported as 1.78 ± 0.26 µg/mL.
With NLRRIIRKIIHIIKKY-NH2 [SMAP29X-16B] the “EC50 P. aeruginosa PAO1” value [1, 9] was 0.75 µg/mL and the “EC50 P. aeruginosa PAO1” value [1, 10] was 3.78 µg/mL.
RGLRALGRKIAHGVKAYG [SMAP29-18AA] was tested, and the “EC50 P. aeruginosa PAO1” value [1, 9] was 0.62 ± 0.13 µg/mL and the “EC50 P. aeruginosa PAO1” value [1, 10] was 7.85 ± 1.16 µg/mL.
RIIRKIIHII-NH2 [SMAP29X-10] was tested, and the “EC50 P. aeruginosa PAO1 μg/ml ± sem” value ([1]; ionic strength 25 mM) was 0.51 ± 0.00 µg/mL and the “EC50 P. aeruginosa PAO1 μg/ml ± sem” value ([1]; ionic strength 175 mM) was 18.67 ± 0.97 µg/mL.
RIIRKIIHIIK-NH2 [SMAP29X-11B] was tested, and the “EC50 P. aeruginosa PAO1 μg/ml ± sem” value ([1]; ionic strength 25 mM) was 0.46 ± 0.02 µg/mL and the “EC50 P. aeruginosa PAO1 μg/ml ± sem” value ([1]; ionic strength 175 mM) was 10.42 ± 0.26 µg/mL.
With RKFRNKIKEKLKKIG [CAP18-15a] the “EC50 P. aeruginosa PAO1” value ([1]; PAO1) was over 20 µg/mL, the “EC50 P. aeruginosa PAO1” value [1, 9] was 1.54 ± 0.43 µg/mL and the EC50 ([8]; DH5α) was 240 ± 70 nM. The “EC50 E. coli DH5α” value [8, 9] was 0.46 ± 0.12 µg/mL, the “MIC E. coli [NaCl] High” value ([2]; high salt underlay (10 mM sodium phosphate buffer +100 mM NaCl, pH 7.4), Table 13) was 0.7 µg/mL and the “MIC E. coli [NaCl] Low” value ([2]; low salt underlay (10 mM sodium phosphate buffer, pH 7.4), Table 13) was 0.2 µg/mL. For the same substance, the “MIC P. aeruginosa [NaCl] High” value ([3]; MR 3007, pH 7.4) was 5.3 µg/mL, the “MIC P. aeruginosa [NaCl] Low” value ([3]; MR 3007, pH 7.4) was 1.5 µg/mL and the “MIC S. aureus [NaCl] High” value ([4]; 930918-3, pH 7.4) was over 250 µg/mL. For the same substance, the “MIC S. aureus [NaCl] Low” value ([4]; 930918-3, pH 7.4) was 19.5 µg/mL, the “MIC MRSA [NaCl] High” value ([5]; ATCC 33591, pH 7.4) was over 250 µg/mL and the “MIC MRSA [NaCl] Low” value ([5]; ATCC 33591, pH 7.4) was over 250 µg/mL.
For RRIIRKIIHII-NH2 [SMAP29X-11A], the “EC50 P. aeruginosa PAO1 μg/ml ± sem” value ([1]; ionic strength 25 mM) was 0.38 ± 0.04 µg/mL and the “EC50 P. aeruginosa PAO1 μg/ml ± sem” value ([1]; ionic strength 175 mM) was 4.92 ± 0.43 µg/mL.
For RRIIRKIIHIIK-NH2 [Peptide 17], the “E. coli ML-35p MIC, 0 mM NaCl” value [2] was 0.29 ± 0.06 µg/mL, the “E. coli ML-35p MIC, 175 mM NaCl” value [2] was over 79.1 µg/mL and the “P. aeruginosa MR-3007 MIC, 0 mM NaCl” value [3] was 0.72 ± 0.15 µg/mL. For the same substance, the “P. aeruginosa MR-3007 MIC, 175 mM NaCl” value [3] was over 79.1 µg/mL, the “S. aureus 930918-3 MIC, 0 mM NaCl” value [4] was 2.29 ± 0.07 µg/mL and the “S. aureus 930918-3 MIC, 175 mM NaCl” value [4] was over 79.1 µg/mL. The “MRSA ATCC 33591 MIC, 0 mM NaCl” value [5] was 11.9 ± 4.7 µg/mL, the “MRSA ATCC 33591 MIC, 175 mM NaCl” value [5] was over 79.1 µg/mL and the “E. coli DH-5α MIC, 0 mM NaCl” value [6] was 0.51 ± 0.09 µg/mL. For the same substance, the “E. coli DH-5α MIC, 175 mM NaCl” value [6] was 46.1 ± 16.1 µg/mL, the “P. aeruginosa PA-01 MIC, 0 mM NaCl” value [7] was 0.69 ± 0.08 µg/mL and the “P. aeruginosa PA-01 MIC, 175 mM NaCl” value [7] was 17.2 ± 4.6 µg/mL.
In the case of RRIIRKIIHIIK-NH2 [SMAP29X-12], the “EC50 P. aeruginosa PAO1 μg/ml ± sem” value ([1]; ionic strength 25 mM) is reported as 0.31 ± 0.01 µg/mL and the “EC50 P. aeruginosa PAO1 μg/ml ± sem” value ([1]; ionic strength 175 mM) is reported as 3.83 ± 0.22 µg/mL.
With RRIIRKIIHIIKK-NH2 [SMAP29X-13B] the “EC50 P. aeruginosa PAO1 μg/ml ± sem” value ([1]; ionic strength 25 mM) was 0.22 ± 0.02 µg/mL and the “EC50 P. aeruginosa PAO1 μg/ml ± sem” value ([1]; ionic strength 175 mM) was 1.51 ± 0.09 µg/mL.
